According to PubChem BioAssay AID248 (DTP/NCI, 2004):
Several values for one entry are separate records, joined by “and”; a condition that tells them apart may be missing. Equal entries are not always repeated. Inconclusive results and toxic doses are left out.

System: L1210 leukemia ip in BDF1 mice, survival T/C
Test: NCI In Vivo Anticancer Drug Screen. Data for tumor model L1210 Leukemia (intraperitoneal) in B6D2F1 (BDF1) mice
Conditions: endpoint: mean survival time, higher = longer survival
Summary of the method: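 In this screen, tumor-bearing mice given compound are compared to those given vehicle, and their survival values are reported as a treated-to-control quotient.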

[1] = dose: 100.0 mg/kg/injection, schedule: Q01DX009 (ip), vehicle: saline with Tween-80
[2] = dose: 200.0 mg/kg/injection, schedule: Q01DX009 (ip), vehicle: saline with Tween-80
[3] = dose: 50.0 mg/kg/injection, schedule: Q01DX001 (ip), vehicle: saline
[4] = dose: 100.0 mg/kg/injection, schedule: Q01DX001 (ip), vehicle: saline
[5] = dose: 200.0 mg/kg/injection, schedule: Q01DX001 (ip), vehicle: saline
[6] = dose: 400.0 mg/kg/injection, schedule: Q01DX001 (ip), vehicle: saline
[7] = dose: 75.0 mg/kg/injection, schedule: Q01DX001 (ip), vehicle: saline
[8] = dose: 150.0 mg/kg/injection, schedule: Q01DX001 (ip), vehicle: saline
[9] = dose: 100.0 mg/kg/injection, schedule: Q01DX009 (ip), vehicle: Klucel (hydroxypropylcellulose) (HPC)
[10] = dose: 200.0 mg/kg/injection, schedule: Q01DX009 (ip), vehicle: Klucel (hydroxypropylcellulose) (HPC)
[11] = dose: 100.0 mg/kg/injection, schedule: Q04DX002 (ip), vehicle: Klucel (hydroxypropylcellulose) (HPC)
[12] = dose: 400.0 mg/kg/injection, schedule: Q01DX009 (ip), vehicle: saline with Tween-80
[13] = dose: 100.0 mg/kg/injection, schedule: Q04DX003 (ip), vehicle: Klucel (hydroxypropylcellulose) (HPC)
[14] = dose: 200.0 mg/kg/injection, schedule: Q04DX003 (ip), vehicle: Klucel (hydroxypropylcellulose) (HPC)

CCOC(=O)/C=C(\C)CO (tested in a mixture with another compound)
T/C (dose: 50.0 mg/kg/injection, schedule: Q01DX009 (ip), vehicle: saline with Tween-80): 93 % of control | T/C [1]: 93 % of control | T/C [2]: 101 % of control

Cc1ccc(C2CCCCC2OS(C)(=O)=O)cc1 (stereo unspecified)
T/C (dose: 100.0 mg/kg/injection, schedule: Q01DX001 (ip), vehicle: carboxymethylcellulose (CMC)): 95 % of control | T/C (dose: 200.0 mg/kg/injection, schedule: Q01DX001 (ip), vehicle: carboxymethylcellulose (CMC)): 92 % of control | T/C (dose: 400.0 mg/kg/injection, schedule: Q01DX001 (ip), vehicle: carboxymethylcellulose (CMC)): 97 % of control

O=C(Nc1cccnc1)c1ccc([N+](=O)[O-])s1
T/C (dose: 50.0 mg/kg/injection, schedule: Q01DX005 (ip), vehicle: saline): 102 % of control | T/C (dose: 100.0 mg/kg/injection, schedule: Q01DX005 (ip), vehicle: saline): 117 % of control | T/C (dose: 400.0 mg/kg/injection, schedule: Q01DX005 (ip), vehicle: saline): 173 % of control

COc1ccccc1OC(=O)c1ccccc1OC(=O)c1cccnc1
T/C (dose: 100.0 mg/kg/injection, schedule: Q04DX002 (ip), vehicle: saline with Tween-80): 101 % of control | T/C (dose: 200.0 mg/kg/injection, schedule: Q04DX002 (ip), vehicle: saline with Tween-80): 96 % of control | T/C (dose: 400.0 mg/kg/injection, schedule: Q04DX002 (ip), vehicle: saline with Tween-80): 89 % of control

CCOC(=O)C(C(=O)OCC)c1ccc(Cl)cc1
T/C [3]: 101 % of control | T/C [4]: 101 % of control | T/C [5]: 101 % of control | T/C [6]: 106 % of control

C=CCCC1(C(C)CC)C(=O)NC(=S)NC1=O (stereo unspecified)
T/C [7]: 100 % of control | T/C [8]: 95 % of control | T/C (dose: 300.0 mg/kg/injection, schedule: Q01DX001 (ip), vehicle: saline): 100 % of control

CCOC(=O)c1ccc(NC(=O)Nc2cccc(F)c2)cc1
T/C [9]: 101 % of control | T/C [10]: 100 % of control

CCCCCCCCC(O)(CCCCCCC)C(=O)O (stereo unspecified)
T/C [11]: 95 % of control | T/C (dose: 200.0 mg/kg/injection, schedule: Q04DX002 (ip), vehicle: Klucel (hydroxypropylcellulose) (HPC)): 117 % of control | T/C (dose: 400.0 mg/kg/injection, schedule: Q04DX002 (ip), vehicle: Klucel (hydroxypropylcellulose) (HPC)): 115 % of control

CN(C)CC(=O)c1ccc(Cl)cc1
T/C (dose: 50.0 mg/kg/injection, schedule: Q01DX009 (ip), vehicle: saline): 87 % of control | T/C (dose: 100.0 mg/kg/injection, schedule: Q01DX009 (ip), vehicle: saline): 102 % of control

Cc1ccc(S(=O)(=O)N(CCCc2c(N)nc(N)nc2-c2ccccc2)c2ccccc2)cc1
T/C (dose: 100.0 mg/kg/injection, schedule: Q04DX003 (ip), vehicle: saline): 100 % of control | T/C (dose: 200.0 mg/kg/injection, schedule: Q04DX003 (ip), vehicle: saline): 97 % of control

CCOC(=O)N1Cc2cc3cc(OC)c(OC)cc3nc2C1
T/C [1]: 109 % of control | T/C (dose: 100.0 mg/kg/injection, schedule: Q04DX003 (ip), vehicle: saline with Tween-80): 106 % of control | T/C [2]: 94 % of control | T/C (dose: 200.0 mg/kg/injection, schedule: Q04DX003 (ip), vehicle: saline with Tween-80): 97 % of control | T/C [12]: 108 % of control | T/C (dose: 400.0 mg/kg/injection, schedule: Q04DX003 (ip), vehicle: saline with Tween-80): 96 % of control

CCN=C(c1ccc(NC(=O)c2ccc(C(=O)Nc3ccc(C(=NCC)N(CC)CC)cc3)c(Cl)c2)cc1)N(CC)CC
T/C (dose: 0.94 mg/kg/injection, schedule: Q01DX Z (ip), vehicle: carboxymethylcellulose (CMC)): 94 % of control

CCOc1ccc2c(O)csc2c1
T/C [1]: 93 % of control | T/C [2]: 95 % of control | T/C [12]: 97 % of control

CC(C)(CCCC(C)(C)[N+](=O)[O-])[N+](=O)[O-]
T/C (dose: 100.0 mg/kg/injection, schedule: Q01DX001 (ip), vehicle: saline with Tween-80): 101 % of control | T/C (dose: 200.0 mg/kg/injection, schedule: Q01DX001 (ip), vehicle: saline with Tween-80): 94 % of control | T/C (dose: 400.0 mg/kg/injection, schedule: Q01DX001 (ip), vehicle: saline with Tween-80): 101 % of control

NC(CCc1c[nH]c(=O)[nH]c1=O)C(=O)O (stereo unspecified)
T/C [3]: 104 % of control | T/C [4]: 100 % of control | T/C [5]: 98 % of control | T/C [6]: 110 % of control

C/C(=C\Br)OC1CCCCO1 (stereo unspecified)
T/C (dose: 100.0 mg/kg/injection, schedule: Q01DX009 (ip), vehicle: acetone): 96 % of control | T/C (dose: 200.0 mg/kg/injection, schedule: Q01DX009 (ip), vehicle: acetone): 96 % of control | T/C (dose: 400.0 mg/kg/injection, schedule: Q01DX009 (ip), vehicle: acetone): 92 % of control

CS(=O)(=O)Nc1ccccc1N
T/C [9]: 95 % of control | T/C [10]: 93 % of control

Oc1cc(O)c2c(c1)OC(c1ccc(O)c(O)c1)C(OC1(c3cc(O)c(O)c(O)c3)Oc3cc(O)cc(O)c3C(O)C1O)C2 (stereo unspecified)
T/C [1]: 95 % of control | T/C [2]: 97 % of control

CC(C)(O)CCC1=C(O)c2ccccc2C(=O)C1=O
T/C [13]: 100 % of control | T/C [14]: 94 % of control

CN(C/C=C/CN(C)P(=O)(N1CC1)N1CC1)P(=O)(N1CC1)N1CC1
T/C (dose: 6.25 mg/kg/injection, schedule: Q01DX009 (ip), vehicle: saline): 107 % of control

CCOC(=O)/C(=C/c1ccc(C)cc1)P(=O)(OCC)OCC
T/C [3]: 101 % of control | T/C [4]: 101 % of control

Clc1ccc([O][Sn]([c]2ccccc2)([c]2ccccc2)[c]2ccccc2)c(-c2ccccc2)c1
T/C (dose: 5.0 mg/kg/injection, schedule: Q01DX001 (ip), vehicle: saline): 90 % of control | T/C (dose: 10.0 mg/kg/injection, schedule: Q01DX001 (ip), vehicle: saline): 96 % of control

O=C(NC(=S)Nc1ccccc1C(=O)O)c1ccccc1
T/C (dose: 50.0 mg/kg/injection, schedule: Q01DX009 (ip), vehicle: saline sonified): 96 % of control | T/C (dose: 100.0 mg/kg/injection, schedule: Q04DX003 (ip), vehicle: saline sonified): 95 % of control | T/C (dose: 200.0 mg/kg/injection, schedule: Q01DX009 (ip), vehicle: saline sonified): 94 % of control | T/C (dose: 200.0 mg/kg/injection, schedule: Q04DX003 (ip), vehicle: saline sonified): 95 % of control

C/C(=N\O)C(C)(C)C
T/C (dose: 25.0 mg/kg/injection, schedule: Q04DX002 (ip), vehicle: Klucel (hydroxypropylcellulose) (HPC)): 98 % of control | T/C (dose: 50.0 mg/kg/injection, schedule: Q04DX002 (ip), vehicle: Klucel (hydroxypropylcellulose) (HPC)): 91 % of control | T/C [11]: 94 % of control and 103 % of control

O=C(CCl)N1CCN(C(=O)CCl)c2ccccc21
T/C [4]: 94 % of control | T/C [5]: 94 % of control | T/C [6]: 97 % of control

CCC1=C(CC2NCCc3cc(OC)c(OC)cc32)CC2c3ccccc3CCN2C1 (stereo unspecified)
T/C (dose: 4.0 mg/kg/injection, schedule: Q04DX003 (ip), vehicle: water): 105 % of control and 106 % of control | T/C (dose: 8.0 mg/kg/injection, schedule: Q04DX003 (ip), vehicle: water): 104 % of control and 108 % of control | T/C (dose: 16.0 mg/kg/injection, schedule: Q04DX003 (ip), vehicle: water): 112 % of control and 100 % of control | T/C (dose: 32.0 mg/kg/injection, schedule: Q04DX003 (ip), vehicle: water): 105 % of control and 98 % of control | T/C (dose: 64.0 mg/kg/injection, schedule: Q04DX003 (ip), vehicle: water): 100 % of control | T/C [7]: 100 % of control and 97 % of control | T/C [8]: 101 % of control and 103 % of control

C=C(C)C(=O)O (tested in a mixture with another compound)
T/C (dose: 100.0 mg/kg/injection, schedule: Q01DX Z (ip), vehicle: saline): 105 % of control | T/C (dose: 200.0 mg/kg/injection, schedule: Q01DX Z (ip), vehicle: saline): 89 % of control

Cc1cc(OC(=O)Nc2cc([N+](=O)[O-])ccc2F)cc(C)c1Cl
T/C [13]: 89 % of control | T/C [14]: 91 % of control | T/C (dose: 400.0 mg/kg/injection, schedule: Q04DX003 (ip), vehicle: Klucel (hydroxypropylcellulose) (HPC)): 93 % of control

O=C1C(Br)C(Br)C(=O)N1c1ccccc1F (stereo unspecified)
T/C (dose: 12.5 mg/kg/injection, schedule: Q01DX009 (ip), vehicle: other): 96 % of control | T/C (dose: 25.0 mg/kg/injection, schedule: Q01DX009 (ip), vehicle: other): 92 % of control

CCCCOC(=O)OCNC(=O)Oc1ccc(Br)cc1Br
T/C [9]: 92 % of control | T/C [10]: 94 % of control | T/C (dose: 400.0 mg/kg/injection, schedule: Q01DX009 (ip), vehicle: Klucel (hydroxypropylcellulose) (HPC)): 101 % of control
